Reference: article PMC12172326 (Journal of Biomedical Science, 2025)
“Also recorded” adds a separate entry of the source. Marks after values point to notes of the source that are not given here.

Tests used:
chicken embryos = test: chicken embryo teratogenicity at E2.5; assay type: in vivo
Protocol: All studies with chicken embryos were performed in line with UK Home Office regulations and followed guidelines, standards and practices governed by the University of Aberdeen Ethics Committee (Scotland, UK). Fertilized chicken eggs were acquired from Henry Stewart & Co Ltd, Norfolk UK. […] Embryos were incubated at 37 °C to reach E2.5 (early developmental stages). Eggs were then opened and the embryonic membranes protecting the embryos were removed with forceps. Chicken embryos usually lie on one side, so the left side is directly against the yolk and the right side can be observed. […] Consequent to limited drug diffusion when applied to the right side of an embryo, the right side is deemed the ‘treatment’ side and the left (facing internally towards the yolk sac) is considered normal after treatment and thus can act as an internal control.

[1] = cited from earlier work
[2] = system: LPS-induced cytokines (TNF-α, IL-6, IL-1β, KC/GRO, IL-10); test: systemic LPS challenge in mice, plasma and cerebral cortex cytokines; assay type: in vivo, mouse
Protocol: 8-week-old male C57/BL6 J mice (25–30 g; n = 28) were randomly assigned to five experimental groups. […] Rolipram, a discontinued PDE4 inhibitor, with known anti-inflammatory activity was used as a positive control. One hour later, animals were administered either LPS (3 mg/kg, serotype 0111:B4, Sigma Aldrich, in normal saline, 0.1 mL/10 g) or an alike volume of saline (without LPS) via the I.P. route. The LPS dose was selected from prior pilot studies to provide a substantial but sub-maximal rise in plasma pro-inflammatory cytokine levels, in line with our prior research. […] Four hours after LPS administration, animals were euthanized, and blood and brain tissue were collected and placed on wet ice. Plasma was quickly separated from blood by centrifugation (10,000g, 5 min, 4 °C), and together with a brain sample (cerebral cortex), were stored at − 80 °C. At a later time, cerebral cortex samples were sonicated in a TRIS-based lysis buffer (Mesoscale Discovery) with 3 × protease/phosphatase inhibitors (Halt™ Protease and Phosphatase Inhibitor Cocktail, Thermo Fisher Scientific, Waltham, MA, USA). Samples were then centrifuged (10,000g, 10 min, 4 °C) and protein concentrations were quantified by bicinchoninic acid assay (BCA, Thermo Fisher Scientific). Mouse plasma and cerebral cortex samples were analyzed by multi-pro-inflammatory cytokine ELISA (V-PLEX Pro-inflammatory Panel 1 Mouse Kit, Mesoscale Discovery) following the manufacturer’s protocol.

human cereblon = target: T1, human cereblon (Homo sapiens, UniProt Q96SW2); test: cereblon/BRD3 binding assay (AlphaScreen in methods, FRET assay in results); conditions: dBET1-Cereblon-BRD3 interaction
T1 construct: purchased BPS Bioscience 79770
T1 sequence (Q96SW2 whole entry): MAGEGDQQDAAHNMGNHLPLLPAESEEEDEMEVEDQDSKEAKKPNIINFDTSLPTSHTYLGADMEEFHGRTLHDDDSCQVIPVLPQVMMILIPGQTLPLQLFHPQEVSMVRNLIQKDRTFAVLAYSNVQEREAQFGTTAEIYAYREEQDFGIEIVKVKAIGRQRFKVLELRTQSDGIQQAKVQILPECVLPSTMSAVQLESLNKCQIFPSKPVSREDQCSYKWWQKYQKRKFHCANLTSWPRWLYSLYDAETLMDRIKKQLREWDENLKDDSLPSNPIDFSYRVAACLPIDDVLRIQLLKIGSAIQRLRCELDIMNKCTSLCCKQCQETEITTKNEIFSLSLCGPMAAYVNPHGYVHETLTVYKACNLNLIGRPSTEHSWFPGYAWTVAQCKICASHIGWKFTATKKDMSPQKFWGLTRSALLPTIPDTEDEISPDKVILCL
T1 sequence (Q16531 whole entry partner): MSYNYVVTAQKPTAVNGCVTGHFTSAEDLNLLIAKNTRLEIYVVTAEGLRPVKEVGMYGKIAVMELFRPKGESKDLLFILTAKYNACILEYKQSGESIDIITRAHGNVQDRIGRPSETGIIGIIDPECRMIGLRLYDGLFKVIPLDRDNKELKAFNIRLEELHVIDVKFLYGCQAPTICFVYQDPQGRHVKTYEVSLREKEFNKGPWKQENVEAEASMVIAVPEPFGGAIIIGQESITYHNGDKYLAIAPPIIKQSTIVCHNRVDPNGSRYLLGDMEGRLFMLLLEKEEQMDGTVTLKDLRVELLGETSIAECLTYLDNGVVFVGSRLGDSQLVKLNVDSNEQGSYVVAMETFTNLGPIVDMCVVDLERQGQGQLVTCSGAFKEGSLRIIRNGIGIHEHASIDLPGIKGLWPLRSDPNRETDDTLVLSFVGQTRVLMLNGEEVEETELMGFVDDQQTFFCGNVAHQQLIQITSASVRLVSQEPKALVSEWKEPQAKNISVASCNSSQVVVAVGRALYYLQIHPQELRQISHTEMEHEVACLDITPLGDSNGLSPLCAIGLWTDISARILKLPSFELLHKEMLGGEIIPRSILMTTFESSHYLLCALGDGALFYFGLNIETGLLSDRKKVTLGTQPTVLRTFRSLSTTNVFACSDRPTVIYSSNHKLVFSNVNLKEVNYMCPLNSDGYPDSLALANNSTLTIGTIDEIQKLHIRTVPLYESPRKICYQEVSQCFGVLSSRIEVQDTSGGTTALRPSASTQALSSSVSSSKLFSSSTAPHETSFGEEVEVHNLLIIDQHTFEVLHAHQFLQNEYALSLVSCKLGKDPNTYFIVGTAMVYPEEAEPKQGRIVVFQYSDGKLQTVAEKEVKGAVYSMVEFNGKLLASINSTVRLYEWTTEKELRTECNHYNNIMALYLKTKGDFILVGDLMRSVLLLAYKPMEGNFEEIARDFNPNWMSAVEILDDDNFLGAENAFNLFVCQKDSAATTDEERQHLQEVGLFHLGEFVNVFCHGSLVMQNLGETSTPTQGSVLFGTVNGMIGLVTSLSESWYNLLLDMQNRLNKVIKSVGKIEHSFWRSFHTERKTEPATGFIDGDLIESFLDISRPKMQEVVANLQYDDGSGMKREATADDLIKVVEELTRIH
T1 sequence (Q13619 whole entry partner): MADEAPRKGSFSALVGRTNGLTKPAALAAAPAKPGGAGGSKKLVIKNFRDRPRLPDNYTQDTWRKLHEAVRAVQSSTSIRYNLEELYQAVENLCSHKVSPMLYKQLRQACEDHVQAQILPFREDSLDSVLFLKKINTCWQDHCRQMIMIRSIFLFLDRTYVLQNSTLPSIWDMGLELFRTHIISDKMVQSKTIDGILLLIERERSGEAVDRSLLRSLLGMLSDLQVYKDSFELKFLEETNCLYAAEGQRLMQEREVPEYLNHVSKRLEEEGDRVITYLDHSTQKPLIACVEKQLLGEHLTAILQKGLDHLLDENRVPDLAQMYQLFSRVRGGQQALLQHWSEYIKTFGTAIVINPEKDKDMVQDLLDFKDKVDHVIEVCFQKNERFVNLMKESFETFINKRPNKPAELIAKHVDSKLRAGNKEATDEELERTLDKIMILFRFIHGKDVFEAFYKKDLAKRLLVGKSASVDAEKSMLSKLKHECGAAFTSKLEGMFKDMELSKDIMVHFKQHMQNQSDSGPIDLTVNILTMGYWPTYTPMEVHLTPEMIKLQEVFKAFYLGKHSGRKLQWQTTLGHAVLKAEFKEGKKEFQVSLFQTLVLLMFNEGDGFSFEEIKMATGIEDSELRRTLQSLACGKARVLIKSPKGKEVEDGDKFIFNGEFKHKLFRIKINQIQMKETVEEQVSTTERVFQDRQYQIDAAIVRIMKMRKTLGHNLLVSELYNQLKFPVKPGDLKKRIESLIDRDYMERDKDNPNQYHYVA
T1 sequence (P62877 whole entry partner): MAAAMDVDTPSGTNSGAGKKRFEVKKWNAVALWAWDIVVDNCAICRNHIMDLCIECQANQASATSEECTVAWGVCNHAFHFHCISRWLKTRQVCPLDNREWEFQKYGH
Protocol: Following 30 min incubation with shaking at room temperature, AlphaLISA anti-FLAG Acceptor and Alpha Glutathione Donor beads (PerkinElmer) were sequentially added and then incubated for a further 1 h at room temperature for each of the added chemicals. Alpha counts were, thereafter, recorded on a Synergy Neo2 (BioTek, Agilent, Santa Clara, CA). The relative activity of the alpha signal was calculated after subtraction of the “blank value” from all readings, and the value of vehicle group was then set as 100%.

aqueous solubility = assay type: physicochemical
Protocol: This coarse drug suspension was transferred into Eppendorf microtubes containing approximately 0.4 g of 0.1–0.2 mm yttrium-stabilized zirconia-silica beads (Silibeads® Typ ZY Sigmund Lindner, Germany). The drug was vortexed twice, at 3000 rpm for 45 min, using a beads-milling cell disruptor (Disruptor Genie®, Scientific Industries, USA). The resulting nanosuspension was collected from each microtube and sieved through a 40 µm filter (Cell Strainer, Falcon # 35234) to remove the zirconia-silica beads. […] The stock drug concentration was 10.83 mg/ml (37.4 mM). The drug vehicle was essentially the same ratio of Tween 80 and water, processed in the identical manner as the drug preparation.

[3] = rat; cited from earlier work
[4] = LPS-induced inflammation in IMG microglial cells (viability, nitrite, TNF-α); assay type: cell-based, mouse; conditions: mouse, IMG immortalized microglial cells, IMG, 0.6 to 60 μM, LPS 10 ng/mL, MTS, read-out: cellular viability
Protocol: (§1) IMG cell culture: Mouse immortalized microglial ‘IMG’ cells (Sigma-Aldrich; St. Louis, MO, USA; Cat # SCC-134, RRID:CVCL HC49) were cultured in High Glucose DMEM (Sigma Cat. No. D6546) with 10% heat-inactivated fetal bovine serum (Gibco™ Cat # 10082147), 1 × L-Glutamine (Sigma Cat # TMS-002-C) and 100 U/mL penicillin/streptomycin (Gibco™ Cat # 15140148). IMG cell subculturing was performed according to the product datasheet. In brief, cells were detached from culture plates with Accutase® (Sigma, Cat # A6964), collected, and centrifuged, with the cell pellet subsequently resuspended in media. The cells were then plated for experiments at specified densities and used for a maximum of 10 passages.
(§2) For cytokine/nitrite assessment studies, cells were grown in 24-well (40 K cells/well) tissue culture-treated plates in 500 μl of media. […] This LPS concentration induced a submaximal inflammatory response in IMG pilot studies. Following a 24 h incubation, conditioned media was collected and replaced with 500 μl fresh media to allow assessment of cell viability, TNF-α (ELISA MAX™ Deluxe Set Mouse TNF-α, BioLegend, CA, USA) and nitrite levels (Griess Reagent System, Promega, Madison, WI, USA), according to manufacturer’s instructions.

IMG cells = test: as above; assay type: cell-based, mouse; conditions: 24 h
Protocol: as §1, §2

[5] = 100 μg/ml; data derive from ref 64; cited from earlier work
[6] = 26.5 and 53 mg/kg I.P. 1 h before LPS 3 mg/kg, 4 h, p < 0.05 to < 0.0001
[7] = cerebral cortex, 26.5 and 53 mg/kg I.P., LPS 3 mg/kg, 4 h

SMILES: Nc1cccc2c1C(=S)N(C1CCC(=O)NC1=O)C2=O (centres unmarked) [3-MP, 3-monothiopomalidomide]
- developmental effect on chicken embryos (chicken embryos; E2.5, 2.65 to 132 ug, 24 h exposure, vs DMSO controls): not teratogenic; also recorded: no adverse developmental differences or damage
- Normal embryos (chicken embryos; E2.5, dose 2.65 ug, N 2, 24 h): 2
- Normal embryos (chicken embryos; E2.5, dose 5.3 ug, N 3, 24 h): 3
- Normal embryos (chicken embryos; E2.5, dose 20 ug, N 5, 24 h): 5
- Not counted embryos (died soon after application, methodology-related) (chicken embryos; E2.5, dose 26.4 ug, N 7): 2^a
- Normal embryos (chicken embryos; E2.5, dose 26.4 ug, N 7, 24 h): 5
- Not counted embryos (died soon after application, methodology-related) (chicken embryos; E2.5, dose 52.8 ug, N 5): 2^a
- Normal embryos (chicken embryos; E2.5, dose 52.8 ug, N 5, 24 h): 3
- Normal embryos (chicken embryos; E2.5, dose 66 ug, N 3, 24 h): 3
- Normal embryos (chicken embryos; E2.5, dose 132 ug, N 3, 24 h): 3
- oral bioavailability [1]: 38.5%
- LPS-mediated elevation in plasma IL-6 [2, 6]: lowered
- LPS-mediated elevation in plasma TNF-α [2, 6]: lowered
- LPS-induced brain IL-1β [2, 7]: dose-dependent reduction
- LPS-induced brain IL-6 [2, 7]: dose-dependent reduction
- LPS-induced brain KC/GRO [2, 7]: dose-dependent reduction
- LPS-induced brain TNF-α [2, 7]: dose-dependent reduction
- levels of the anti-inflammatory cytokine IL-10 ([2]; plasma and brain, 26.5 and 53 mg/kg I.P., compared to LPS treatment): unaffected
- IC50 (human cereblon): 210 nM
- aqueous solubility (aqueous solubility): poorly aqueous soluble
- stability in ex vivo plasma and liver homogenate samples [3]: relatively stable
- viability at 24 h [4]: > 90%
- IMG cell viability (IMG cells; 100 μM, without LPS, vs vehicle control, MTS): reduced
- concentration significantly reducing LPS-induced TNF-α (IMG cells; IMG, LPS 10 ng/mL, p < 0.001): ≥ 10 µM
- concentration significantly reducing LPS-induced nitrite (IMG cells; IMG, LPS 10 ng/mL, p < 0.05): ≥ 30 µM
- ex vivo stability in human plasma [5]: stable
